Assay results as given in patent publication US11903926B1, “Non-hormonal treatment of hot flashes” (priority 2012, dated 2024).
Where two headings read alike, the source gives them in different places.

Tests used:
[1] = tested on: women with dramatic vasomotor hot flashes and sleep disruption; test: Clinical study of six women with vasomotor hot flashes and sleep disruption, symptoms graded 0-4; type: in vivo; conditions: for effect on vasomotor / hot flash symptoms (in words) / effect on sleep (in words): six women, agent alone; for effect on vasomotor / hot flash symptoms (in words): versus untreated; for Hot Flash Severity: grade 0-4 (duration), average of six women; for Hot Flash Frequency: end of treatment period (up to four weeks), ropinirole 4 mg, tizanidine 4 mg, clonidine 0.1 mg, rotigotine 1 mg, pramipexole 1.5 mg, chlorpromazine 25 mg, haloperidol 1 mg, venlafaxine 75 mg, paroxetine 20 mg, gabapentin 300 mg, pregabilin 50 mg
Experimental: Patients were on each regimen at the doses cited for up to four weeks.
Symptoms were evaluated on a scale from 0 to 4, with 0 being not affected, 1 being mild, 2 being moderate, 3 being severe, and 4 being a very severe expression of either vasomotor symptom frequency, severity, sweating, falling asleep and waking during the night for each patient and evaluated at the end of the treatment period. The findings reported are based on an average of the reported symptoms of the six women studied.
Specifically, regarding hot flash frequency, evaluation was based upon the number of hot flashes per day. The frequency of hot flashes was graded on a scale of 0-4, with 0 as none detected, 1 as 1-4/day (mild), 2 as 5-8/day (moderate), 3 as 9-12/day (severe), and 4 as more than 12/day (very severe).
The severity of the hot flashes, reflecting hot flash duration, was also graded on a scale of 0-4, with 0 being not detected, 1 being mild (less than 1 minute), 2 moderate (1-2 minutes), 3 severe (2-3 minutes), and 4 very severe (greater than 4 minutes). This evaluation reflects the duration and intensity as rated by the individual.
The sweating response was graded on a scale of 0-4 as well, with 0 being not detected, 1 being mild (minimally moist skin), 2 moderate (moisture of the skin), 3 severe (noticeable perspiration, hair, ears, neck, chest), and 4 very severe (soaking sweat).
Falling asleep was also graded on a scale of 0-4, with 0 being no issue (less than 15 minutes), 1 being mild (15-20 minutes), 2 moderate (20-40 minutes), 3 severe (40-60 minutes), and 4 very severe (greater than 60 minutes).
Wakings were graded on a scale of 0-4 as well, with 0 being not detected, 1 being mild (1-5 wakings/night), 2 moderate (5-10 wakings/night), 3 severe (10-15 wakings/night), and 4 very severe (greater than 15 wakings/night).
The D2 receptor family (D2, D3 or D4) agonists ropinirole, rotigotine and pramipexole were examined, and contrasted with D2 receptor family antagonists chlorpromazine or haloperidol. Ropinirole and pramipexole were evaluated alone and with either alpha-2-adrenergic agonist tizanidine or clonidine.
Venlafaxine, paroxetine, gabapentin, and pregabilin were also evaluated in comparison with tizanidine.

[2] = tested on: women with menopausal symptoms including hot flashes; conditions: for hot flashes under existing medication: already treated for neuropathic pain and depression; for benefit in sleep cycle: standard sedative hypnotics for insomnia
Experimental: The patients were treated by escalating the dose of ropinirole to 4 mg, testing the hypothesis of a dopaminergically regulated pathway within the central nervous system which impacts hot flashes.
Therefore, the initial dose provided was 1 mg at bedtime, and the dose was raised as needed, every fourth day, to a maximum of 8 mg, if needed, usually at bedtime.
Safety monitoring included making certain there were no issues with liver function, low blood pressure or unusual dreams as this was accomplished. Tizanidine could, if needed, be dosed again during the night without causing a morning “hangover” effect providing there was a four hour sleep window available.
Ropinirole titration was initiated with 0.25 mg at bedtime, and if tolerated, by escalating the dose by 0.25 mg every fourth day to a maximum of 1 mg (i.e., 0.25 mg, 0.50 mg, 0.75 mg, 1 mg), until there was reduction in both the frequency and severity of hot flashes. If higher doses were needed, then both 1 mg, or later 2 mg and both 1 and 2 mg ropinirole tablets were used along with the continued titration by 0.25 mg steps every fourth day until a maximum of 4 mg was reached.

[3] = tested on: women with menopausal vasomotor symptoms and sleep disruption; test: Clinical study of eight women with menopausal vasomotor symptoms and sleep disruption, symptoms graded 1-4; type: in vivo; conditions: for effect on vasomotor symptoms (in words) / effect on sleep (in words): eight women; for effect on sleep (in words): agent alone; for Hot Flash Frequency / Sweating / Wakings / Falling Asleep / Hot Flash Severity: grade 1-4, average of eight women, ropinirole 4 mg, tizanidine 4 mg, ramelteon 8 mg; for Hot Flash Frequency: at bedtime for at least four weeks; for Hot Flash Frequency / Falling Asleep / Hot Flash Severity: untreated = 4; for Sweating / Wakings / Falling Asleep / Hot Flash Severity: at least four weeks; for Sweating / Wakings: untreated = 3
Experimental: Patients were on each regimen at the doses cited for at least four weeks.
Symptoms were evaluated on a scale from 1 to 4, with 1 being mild, 2 being moderate, 3 being severe, and 4 being a very severe expression of either vasomotor symptom frequency, severity, sweating, falling asleep and wakings during the night were evaluated for each patient and evaluate at the end of the treatment period. The findings were based on an average of the reported symptoms of the eight women studied.
Specifically with respect to hot flash frequency, evaluation was based upon the number of hot flashes per day. The frequency of the hot flashes was graded on a scale of 1-4, with 1 as 1-4/day (mild), 2 as 5-8/day (moderate), 3 as 9-12/day (severe), and 4 as more than 12/day (very severe).
The severity of the hot flashes was graded on a scale of 1-4, with 1 being mild (less than 1 minute), 2 moderate (1-2 minutes), 3 severe (2-3 minutes), and 4 very severe (greater than 4 minutes). This evaluation reflects the duration and intensity as rated by the individual.
The sweating response was graded on a scale of 1-4, with 1 being mild (minimally moist skin), 2 moderate (moisture on skin), 3 severe (noticeable perspiration, hair, ears, neck, chest), and 4 very severe (soaking sweat).
Falling asleep was graded on a scale of 1-4, with 1 being mild (15-20 minutes), 2 moderate (20-40 minutes), 3 severe (40-60 minutes), and 4 very severe (greater than 60 minutes).
Wakings were graded on a scale of 1-4, with 1 being mild (1-5 wakings/night), 2 moderate (5-10 wakings/night), 3 severe (10-15 wakings/night), and 4 very severe (greater than 15 wakings/night).

[4] = tested on: hot flashes, including vasomotor symptoms of menopause; test: Observed activity of D2 family agonists tested in controlling hot flashes; type: in vivo; conditions: D2 family members tested to date
[5] = up to four weeks, untreated = 3
[6] = grade 0-4, average of six women, untreated = 3
[7] = patients of the case studies, ropinirole escalated from 0.25 mg to 4 mg at bedtime

For CN(C)CCCN1c2ccccc2Sc2ccc(Cl)cc21 [Chlorpromazine, chlorpromazine], the “effect on vasomotor / hot flash symptoms (in words)” value [1] was “aggravated menopausal symptoms”.
Clc1cccc(Cl)c1N=C1NCCN1 [Clonidine, clonidine] was tested, and the “effect on sleep (in words)” value [1] was “impressive effect on sleep”, the “effect on vasomotor / hot flash symptoms (in words)” value [1] was “very modest reduction in vasomotor symptoms” and the “hot flashes under existing medication” value ([2]; patient two) was “developed these hot flash symptoms despite those medications”.
In the case of NCC1(CC(=O)O)CCCCC1 [Gabapentin, gabapentin], the “effect on vasomotor / hot flash symptoms (in words)” value [1] is reported as “reduced hot flash symptoms over untreated patients” and the “hot flashes under existing medication” value ([2]; patient two) is reported as “developed these hot flash symptoms despite those medications”.
O=C(CCCN1CCC(O)(c2ccc(Cl)cc2)CC1)c1ccc(F)cc1 [Haloperidol, haloperidol] was tested, and the “effect on vasomotor / hot flash symptoms (in words)” value [1] was “aggravated menopausal symptoms”.
In the case of Fc1ccc([C@@H]2CCNC[C@H]2COc2ccc3c(c2)OCO3)cc1 [Paroxetine, paroxetine], the “effect on vasomotor / hot flash symptoms (in words)” value [1] is reported as “reduced hot flash symptoms over untreated patients”.
For CCCN[C@H]1CCc2nc(N)sc2C1 [Pramipexole], the “Hot Flash Severity” value [1, 5] was 0 and the “Hot Flash Frequency” value [1, 6] was 0.
CC(C)C[C@H](CN)CC(=O)O [Pregabilin, pregabalin] was tested, and the “effect on vasomotor / hot flash symptoms (in words)” value [1] was “reduced hot flash symptoms over untreated patients”.
CCC(=O)NCC[C@@H]1CCc2ccc3c(c21)CCO3 [Ramelteon, ramelteon] was tested, and the “effect on vasomotor symptoms (in words)” value [3] was “no impact on vasomotor symptoms”, the “effect on sleep (in words)” value [3] was “only a limited impact on sleep” and the “Hot Flash Frequency” value [3] was 4 (4 as more than 12/day (very severe)). The Sweating [3] was 3, the Wakings [3] was 3 (3 severe (10-15 wakings/night)) and the “Falling Asleep” value [3] was 3 (3 severe (40-60 minutes)). For the same compound, the “Hot Flash Severity” value [3] was 4 (4 very severe (greater than 4 minutes)).
For CCCN(CCC)CCc1cccc2c1CC(=O)N2 [Ropinirole, ropinirole], the “effect on vasomotor symptoms (in words)” value [3] was “notable, but incomplete reduction in frequency and severity of vasomotor symptoms”, the “effect on sleep (in words)” value [3] was “limited impact on sleep” and the “Hot Flash Frequency” value [3] was 1 (1 as 1-4/day (mild)). The Sweating [3] was 1, the Wakings [3] was 3 (3 severe (10-15 wakings/night)) and the “Falling Asleep” value [3] was 3 (3 severe (40-60 minutes)). The “Hot Flash Severity” value [3] was 1 (1 being mild (less than 1 minute)), the “Hot Flash Severity” value [1, 5] was 0 and the “Hot Flash Frequency” value [1, 6] was 0. The “effect on sleep (in words)” value [1] was “limited impact on sleep”, the “effect on vasomotor / hot flash symptoms (in words)” value [1] was “notable reduction in frequency and severity of vasomotor symptoms” and the side effects ([2]; patient one, ropinirole 4 mg daily at bedtime with tizanidine 8 mg) was “without side effects”. The “vasomotor symptoms (hot flashes)” value ([2]; patient one, ropinirole 4 mg daily at bedtime with tizanidine 8 mg at bedtime, 15-20 hot flashes per day before) was “totally eliminated the vasomotor symptoms (hot flashes)”, the “hot flashes on re-administration after removal” value ([2]; patient three, ropinirole removed (symptoms returned) and re-administered at 4 mg) was “the hot flashes once again disappeared” and the side effects ([2]; patient two, ropinirole 4 mg at bedtime with tizanidine 8 mg) was “without untoward side effects”. For the same compound, the “frequency and severity of hot flashes” value ([2]; patient two, ropinirole 4 mg at bedtime with tizanidine 8 mg at bedtime, 10-15 hot flashes per day before) was “complete resolution of the frequency and severity of the hot flashes”, the “effect on hot flashes of menopause” value [2, 7] was “dramatic shutdown of previously intolerable hot flashes of menopause” and the side effects [2, 7] was “without side effects”. For the same compound, the “activity in controlling hot flashes” value [4] was “unique activity”.
CCCN(CCc1cccs1)[C@H]1CCc2c(O)cccc2C1 [Rotigitine, rotigotine] was tested, and the “Hot Flash Severity” value [1, 5] was 0, the “Hot Flash Frequency” value [1, 6] was 0 and the “Falling Asleep” value ([1]; grade 0-4, average of six women, up to four weeks, untreated = 2) was 0 (0 being no issue (less than 15 minutes)). The Sweating ([1]; grade 0-4, average of six women, up to four weeks, untreated = 3) was 0, the Wakings ([1]; grade 0-4, average of six women, up to four weeks, untreated = 4) was 1 (1 being mild (1-5 wakings/night)) and the “effect on sleep (in words)” value [1] was “limited impact on sleep”. The “effect on vasomotor / hot flash symptoms (in words)” value [1] was “notable reduction in frequency and severity of vasomotor symptoms” and the “activity in controlling hot flashes” value [4] was “unique activity”.
In the case of Clc1ccc2nsnc2c1NC1=NCCN1 [Tizanidine, tizanidine], the “effect on vasomotor symptoms (in words)” value [3] is reported as “very modest reduction in vasomotor symptoms”, the “effect on sleep (in words)” value [3] is reported as “more impressive effect on sleep” and the “Hot Flash Frequency” value [3] is reported as 3 (3 as 9-12/day (severe)). For the same compound, the Sweating [3] was 3, the Wakings [3] was 2 (2 moderate (5-10 wakings/night)) and the “Falling Asleep” value [3] was 2 (2 moderate (20-40 minutes)). For the same compound, the “Hot Flash Severity” value [3] was 3 (3 severe (2-3 minutes)), the “effect on sleep (in words)” value [1] was “impressive effect on sleep” and the “effect on vasomotor / hot flash symptoms (in words)” value [1] was “very modest reduction in vasomotor symptoms”. For the same compound, the sleep ([2]; patient one, tizanidine 8 mg at bedtime) was “facilitate sleep, which it did” and the sleep ([2]; patient three, tizanidine 1 mg raised up to 8 mg at bedtime) was “able to sleep through the night”.
In the case of COc1ccc(C(CN(C)C)C2(O)CCCCC2)cc1 (stereo not shown) [Venlafaxine], the “effect on vasomotor / hot flash symptoms (in words)” value [1] is reported as “reduced hot flash symptoms over untreated patients” and the “hot flashes under existing medication” value ([2]; patient two) is reported as “developed these hot flash symptoms despite those medications”.
For CC(C)(C#N)c1cc(Cn2cncn2)cc(C(C)(C)C#N)c1 [anastrozole], the “effect on hot flashes (side effect of aromatase inhibitor)” value ([2]; patient three, anastrozole 1 mg daily) was “exacerbated the hot flashes”.
For O=C1CN=C(c2ccccc2Cl)c2cc([N+](=O)[O-])ccc2N1 [clonazepam], the “benefit in sleep cycle” value ([2]; patient three) was “no significant benefit in sleep cycle”.
For c1cnc(N2CCN(Cc3ccc4c(c3)OCO4)CC2)nc1 [piribedil], the “activity in controlling hot flashes” value [4] was “unique activity”.
For CN1C(=O)C(O)N=C(c2ccccc2)c2cc(Cl)ccc21 (stereo not shown) [temazepam], the “benefit in sleep cycle” value ([2]; patient three) was “no significant benefit in sleep cycle”.
CCN(C(C)=O)c1cccc(-c2ccnc3c(C#N)cnn23)c1 [zaleplon] was tested, and the “benefit in sleep cycle” value ([2]; patient three) was “no significant benefit in sleep cycle”.
In the case of Cc1ccc(-c2nc3ccc(C)cn3c2CC(=O)N(C)C)cc1 [zolpidem], the “benefit in sleep cycle” value ([2]; patient three) is reported as “no significant benefit in sleep cycle”.
